Common to all, as to format: biochemical
One test has as its target T1, Lck (Homo sapiens, UniProt P06239).
T1 construct: Kinases are expressed as either kinase domains or full length constructs; made in house
Put plainly: Kinase inhibition assay (33P transfer), Lck. The note with it: read-out: Lck-1. The procedure, abridged:
(§1)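 Kinase domains or full-length kinases, GST- or His-tagged and expressed in E. coli or baculovirus/High Five cells, transferred 33PO4 from ATP onto plate-bound poly(Glu,Tyr) 4:1 or poly(Arg,Ser) 3:1. After incubation, plates were washed with 0.5% phosphoric acid and counted by liquid scintillation.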

For a further test, the target named is T2, Kdr (Homo sapiens, UniProt P35968).
T2 construct: Kinases are expressed as either kinase domains or full length constructs; made in house
Briefly: Kinase inhibition assay (33P transfer), Kdr. The settings on record: read-out: KDR-1. The procedure, abridged: as §1

Another test addresses T3, PDGFRB (Homo sapiens, UniProt P09619).
T3 construct: Kinases are expressed as either kinase domains or full length constructs; made in house
Put plainly: Kinase inhibition assay (33P transfer), PDGFRB. The note with it: read-out: PDGFRB-1.

The next test addresses T4, c-Met (Homo sapiens, UniProt P08581).
T4 construct: Kinases are expressed as either kinase domains or full length constructs; made in house
Briefly: Kinase inhibition assay (33P transfer), c-Met. The note with it: Table 2, kinase inhibition class; read-out: Met-1. In a few lines: (§2)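 Activity read as 33P incorporation from ATP into poly(Glu,Tyr) 4:1 or poly(Arg,Ser) 3:1 substrate bound to microtiter plates, measured by scintillation after acid washing. Enzymes were affinity-purified GST or polyHis fusions (kinase domain or full length) from E. coli or baculovirus; IC50 = 50% reduction in labelled phosphate.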

In a further test the target is T5, ErbB2 (Homo sapiens, UniProt P04626).
T5 construct: Kinases are expressed as either kinase domains or full length constructs; made in house
Put plainly: Kinase inhibition assay (33P transfer), ErbB2. The note with it: read-out: ErbB2-2. The procedure, abridged: as §2

The next test addresses T6, EGFR (Homo sapiens, UniProt P00533).
T6 construct: Kinases are expressed as either kinase domains or full length constructs; made in house
Briefly: Kinase inhibition assay (33P transfer), EGFR. The settings on record: Table 2, kinase inhibition class; read-out: EGFR-1. In a few lines:
as §2

In another test the target is T7, Itk (Homo sapiens, UniProt Q08881).
T7 construct: Kinases are expressed as either kinase domains or full length constructs; made in house
T7 sequence (Q08881 1-620): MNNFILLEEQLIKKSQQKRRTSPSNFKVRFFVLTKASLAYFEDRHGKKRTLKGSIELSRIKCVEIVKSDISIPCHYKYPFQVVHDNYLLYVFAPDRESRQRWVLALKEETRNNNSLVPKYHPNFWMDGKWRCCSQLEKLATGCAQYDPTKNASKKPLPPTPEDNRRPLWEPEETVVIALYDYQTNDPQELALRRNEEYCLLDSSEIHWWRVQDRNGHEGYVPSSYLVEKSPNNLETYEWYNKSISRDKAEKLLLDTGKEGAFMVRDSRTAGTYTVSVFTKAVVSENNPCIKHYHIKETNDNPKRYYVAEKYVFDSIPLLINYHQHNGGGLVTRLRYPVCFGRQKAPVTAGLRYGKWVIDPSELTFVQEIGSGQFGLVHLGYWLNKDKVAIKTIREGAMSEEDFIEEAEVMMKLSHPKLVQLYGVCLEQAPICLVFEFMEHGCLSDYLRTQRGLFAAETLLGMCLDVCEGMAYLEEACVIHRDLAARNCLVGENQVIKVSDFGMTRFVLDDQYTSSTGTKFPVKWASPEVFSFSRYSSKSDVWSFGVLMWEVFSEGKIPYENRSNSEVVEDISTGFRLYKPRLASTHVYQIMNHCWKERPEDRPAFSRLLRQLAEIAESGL
Briefly: Kinase inhibition assay (33P transfer), Itk. The settings on record: read-out: Itk-1. The procedure, abridged: as §2

In another test the target is T8, Zap-70 (Homo sapiens, UniProt P43403).
T8 construct: Kinases are expressed as either kinase domains or full length constructs; made in house
T8 sequence (P43403 1-619): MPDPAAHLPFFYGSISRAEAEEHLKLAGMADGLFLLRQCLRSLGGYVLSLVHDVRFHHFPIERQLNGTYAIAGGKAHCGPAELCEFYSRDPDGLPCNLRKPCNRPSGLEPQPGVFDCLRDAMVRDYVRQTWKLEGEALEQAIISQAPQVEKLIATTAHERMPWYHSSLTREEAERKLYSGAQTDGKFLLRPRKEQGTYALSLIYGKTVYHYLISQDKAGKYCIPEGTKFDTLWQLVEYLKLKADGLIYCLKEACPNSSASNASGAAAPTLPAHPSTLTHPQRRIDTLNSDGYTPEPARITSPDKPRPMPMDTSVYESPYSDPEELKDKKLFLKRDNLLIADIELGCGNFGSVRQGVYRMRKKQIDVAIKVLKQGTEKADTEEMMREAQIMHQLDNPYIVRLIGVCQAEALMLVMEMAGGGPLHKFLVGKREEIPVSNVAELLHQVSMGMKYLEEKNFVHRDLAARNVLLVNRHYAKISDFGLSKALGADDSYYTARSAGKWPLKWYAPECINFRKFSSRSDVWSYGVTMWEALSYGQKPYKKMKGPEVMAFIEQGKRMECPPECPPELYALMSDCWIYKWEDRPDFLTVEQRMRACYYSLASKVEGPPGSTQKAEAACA
Briefly: Kinase inhibition assay (33P transfer), Zap-70. The note with it: read-out: Zap-1. The procedure, abridged:
as §1

In a further test the target is T9, IGFR-1 (Homo sapiens, UniProt P08069).
T9 construct: Kinases are expressed as either kinase domains or full length constructs; made in house
Briefly: Kinase inhibition assay, IGFR-1 (Table 2). The note with it: Table 2, kinase inhibition class.

A further test concerns the target T10, AKT (Homo sapiens, UniProt Q9Y243).
T10 construct: Kinases are expressed as either kinase domains or full length constructs; made in house
Put plainly: Kinase inhibition assay (33P transfer), AKT. The settings on record: Table 2, kinase inhibition class; read-out: AKT3-1. The procedure, abridged:
as §1

T3 sequence (P09619 33-1106, species assumed): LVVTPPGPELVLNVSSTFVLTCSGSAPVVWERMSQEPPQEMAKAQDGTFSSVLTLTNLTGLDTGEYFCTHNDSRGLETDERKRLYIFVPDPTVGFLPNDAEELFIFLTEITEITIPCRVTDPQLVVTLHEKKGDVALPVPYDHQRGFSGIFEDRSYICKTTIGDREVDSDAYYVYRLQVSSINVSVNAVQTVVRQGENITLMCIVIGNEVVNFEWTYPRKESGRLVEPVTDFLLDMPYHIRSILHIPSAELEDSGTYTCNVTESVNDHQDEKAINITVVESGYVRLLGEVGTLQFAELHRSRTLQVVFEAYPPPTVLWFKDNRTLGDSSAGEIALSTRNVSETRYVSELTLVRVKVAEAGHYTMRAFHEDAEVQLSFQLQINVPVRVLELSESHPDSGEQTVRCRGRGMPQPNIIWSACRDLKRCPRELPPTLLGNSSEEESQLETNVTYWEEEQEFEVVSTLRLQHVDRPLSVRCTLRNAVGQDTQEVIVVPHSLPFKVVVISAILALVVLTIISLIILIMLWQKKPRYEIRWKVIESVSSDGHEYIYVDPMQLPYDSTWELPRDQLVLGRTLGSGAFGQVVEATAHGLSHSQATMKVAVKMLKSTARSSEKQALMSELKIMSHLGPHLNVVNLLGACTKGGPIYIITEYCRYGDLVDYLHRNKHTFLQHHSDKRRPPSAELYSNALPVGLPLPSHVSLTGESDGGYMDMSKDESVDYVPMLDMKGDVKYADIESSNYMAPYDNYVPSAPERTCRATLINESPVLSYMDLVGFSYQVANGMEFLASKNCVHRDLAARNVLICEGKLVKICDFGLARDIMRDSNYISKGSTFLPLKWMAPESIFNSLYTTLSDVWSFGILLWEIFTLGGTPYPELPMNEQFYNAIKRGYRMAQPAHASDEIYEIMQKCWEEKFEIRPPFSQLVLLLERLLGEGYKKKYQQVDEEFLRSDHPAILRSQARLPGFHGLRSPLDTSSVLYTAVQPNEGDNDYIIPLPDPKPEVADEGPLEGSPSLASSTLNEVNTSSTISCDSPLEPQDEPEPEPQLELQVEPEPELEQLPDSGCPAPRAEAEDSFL
T10 sequence (Q9Y243 whole entry, the tested form may be a part): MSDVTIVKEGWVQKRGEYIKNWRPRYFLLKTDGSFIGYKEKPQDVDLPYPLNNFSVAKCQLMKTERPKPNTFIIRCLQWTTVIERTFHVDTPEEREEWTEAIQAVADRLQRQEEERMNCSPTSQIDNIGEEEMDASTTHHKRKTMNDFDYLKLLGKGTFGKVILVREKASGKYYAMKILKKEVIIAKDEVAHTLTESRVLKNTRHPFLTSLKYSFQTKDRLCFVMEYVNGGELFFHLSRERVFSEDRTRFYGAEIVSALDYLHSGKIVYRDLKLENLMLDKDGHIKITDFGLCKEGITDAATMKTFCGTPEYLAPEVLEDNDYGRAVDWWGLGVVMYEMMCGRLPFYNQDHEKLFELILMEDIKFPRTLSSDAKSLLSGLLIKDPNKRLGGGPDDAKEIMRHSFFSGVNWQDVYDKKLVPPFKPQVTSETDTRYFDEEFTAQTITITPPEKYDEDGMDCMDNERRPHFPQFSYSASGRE
T6 sequence (P00533 25-1210, species assumed): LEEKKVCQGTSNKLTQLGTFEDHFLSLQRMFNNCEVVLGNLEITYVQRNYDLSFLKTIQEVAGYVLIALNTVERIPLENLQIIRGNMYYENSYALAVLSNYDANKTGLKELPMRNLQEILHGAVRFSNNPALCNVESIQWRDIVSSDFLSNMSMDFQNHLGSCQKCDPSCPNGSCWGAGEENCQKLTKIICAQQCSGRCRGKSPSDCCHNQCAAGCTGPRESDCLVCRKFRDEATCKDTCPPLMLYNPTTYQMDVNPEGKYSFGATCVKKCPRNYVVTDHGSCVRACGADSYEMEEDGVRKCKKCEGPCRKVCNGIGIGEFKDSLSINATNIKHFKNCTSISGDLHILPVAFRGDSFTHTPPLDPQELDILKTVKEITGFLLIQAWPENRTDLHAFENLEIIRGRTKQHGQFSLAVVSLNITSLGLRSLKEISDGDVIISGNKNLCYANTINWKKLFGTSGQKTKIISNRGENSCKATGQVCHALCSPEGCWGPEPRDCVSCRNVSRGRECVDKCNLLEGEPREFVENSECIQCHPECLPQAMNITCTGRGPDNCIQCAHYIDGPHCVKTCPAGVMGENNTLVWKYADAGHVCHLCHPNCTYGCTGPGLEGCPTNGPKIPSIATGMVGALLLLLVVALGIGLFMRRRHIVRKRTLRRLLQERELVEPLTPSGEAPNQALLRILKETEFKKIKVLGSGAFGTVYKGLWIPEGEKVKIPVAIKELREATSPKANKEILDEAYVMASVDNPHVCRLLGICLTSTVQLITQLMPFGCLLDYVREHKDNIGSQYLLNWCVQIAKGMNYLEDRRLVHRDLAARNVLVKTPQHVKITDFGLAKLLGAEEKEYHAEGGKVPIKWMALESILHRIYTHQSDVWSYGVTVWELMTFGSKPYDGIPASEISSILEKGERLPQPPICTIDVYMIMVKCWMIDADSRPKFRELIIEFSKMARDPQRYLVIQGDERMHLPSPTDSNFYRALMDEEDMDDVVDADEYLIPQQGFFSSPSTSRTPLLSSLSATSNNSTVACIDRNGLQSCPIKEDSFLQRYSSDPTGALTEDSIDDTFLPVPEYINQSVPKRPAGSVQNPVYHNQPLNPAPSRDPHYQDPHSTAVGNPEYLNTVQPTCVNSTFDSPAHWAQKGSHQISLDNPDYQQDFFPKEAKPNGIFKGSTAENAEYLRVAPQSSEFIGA
T2 sequence (P35968 20-1356, species assumed): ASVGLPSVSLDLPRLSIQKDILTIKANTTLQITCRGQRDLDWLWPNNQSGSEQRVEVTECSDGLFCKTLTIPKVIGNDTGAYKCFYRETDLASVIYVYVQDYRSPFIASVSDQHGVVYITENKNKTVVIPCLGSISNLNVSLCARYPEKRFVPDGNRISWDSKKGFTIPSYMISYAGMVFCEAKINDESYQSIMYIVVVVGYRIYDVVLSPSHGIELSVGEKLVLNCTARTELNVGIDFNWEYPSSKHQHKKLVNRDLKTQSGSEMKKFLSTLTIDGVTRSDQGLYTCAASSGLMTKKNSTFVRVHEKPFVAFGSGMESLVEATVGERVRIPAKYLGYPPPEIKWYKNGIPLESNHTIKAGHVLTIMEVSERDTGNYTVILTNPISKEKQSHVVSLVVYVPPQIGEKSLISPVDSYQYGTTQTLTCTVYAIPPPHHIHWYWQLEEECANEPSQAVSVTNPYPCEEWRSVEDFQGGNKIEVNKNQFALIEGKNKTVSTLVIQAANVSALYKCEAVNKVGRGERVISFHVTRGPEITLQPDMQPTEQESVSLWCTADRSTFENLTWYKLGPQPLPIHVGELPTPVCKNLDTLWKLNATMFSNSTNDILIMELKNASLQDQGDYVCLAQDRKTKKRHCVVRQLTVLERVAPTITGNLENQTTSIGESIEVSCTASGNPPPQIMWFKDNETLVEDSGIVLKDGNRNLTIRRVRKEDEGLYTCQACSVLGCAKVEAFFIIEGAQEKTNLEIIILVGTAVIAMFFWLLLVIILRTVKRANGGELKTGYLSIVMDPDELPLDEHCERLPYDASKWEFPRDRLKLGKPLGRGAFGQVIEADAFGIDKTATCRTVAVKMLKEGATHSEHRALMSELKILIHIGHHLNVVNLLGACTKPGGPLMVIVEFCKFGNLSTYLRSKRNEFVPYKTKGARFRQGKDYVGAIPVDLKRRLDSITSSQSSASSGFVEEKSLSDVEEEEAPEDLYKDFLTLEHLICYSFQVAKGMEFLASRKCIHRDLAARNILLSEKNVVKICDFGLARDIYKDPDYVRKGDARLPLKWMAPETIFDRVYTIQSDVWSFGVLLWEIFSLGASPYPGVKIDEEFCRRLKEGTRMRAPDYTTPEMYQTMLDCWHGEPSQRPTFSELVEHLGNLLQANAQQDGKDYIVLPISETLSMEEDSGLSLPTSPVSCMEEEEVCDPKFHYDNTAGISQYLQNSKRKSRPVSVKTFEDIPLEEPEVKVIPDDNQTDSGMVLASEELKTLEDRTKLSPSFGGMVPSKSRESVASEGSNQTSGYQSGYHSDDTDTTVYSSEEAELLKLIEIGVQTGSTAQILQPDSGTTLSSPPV
T1 sequence (P06239 whole entry, species assumed, the tested form may be a part): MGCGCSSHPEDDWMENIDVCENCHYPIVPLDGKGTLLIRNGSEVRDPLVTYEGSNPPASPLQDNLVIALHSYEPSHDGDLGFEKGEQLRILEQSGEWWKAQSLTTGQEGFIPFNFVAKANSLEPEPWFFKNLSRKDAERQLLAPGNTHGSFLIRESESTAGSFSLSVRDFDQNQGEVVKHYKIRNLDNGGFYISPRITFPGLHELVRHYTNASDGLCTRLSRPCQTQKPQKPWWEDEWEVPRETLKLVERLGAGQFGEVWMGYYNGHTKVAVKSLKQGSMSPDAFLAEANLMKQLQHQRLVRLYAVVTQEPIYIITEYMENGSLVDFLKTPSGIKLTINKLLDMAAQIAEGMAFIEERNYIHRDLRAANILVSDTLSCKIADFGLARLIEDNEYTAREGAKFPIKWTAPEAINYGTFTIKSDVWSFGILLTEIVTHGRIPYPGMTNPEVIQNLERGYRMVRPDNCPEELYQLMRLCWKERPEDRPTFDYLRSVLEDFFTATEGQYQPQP

Consider `COc1ccc(Nc2ncnc(NCC(O)c3ccccc3)n2)cc1OC` (centres unmarked) [Compound 780], for which the IC50 at Lck is 6.53 to 9.53 µM; at Kdr, over 12.2 µM; at PDGFRB, 9.53 to 12.2 µM; on c-Met, over 12.2 µM; at ErbB2, over 12.2 µM; at EGFR, 9.53 to 12.2 µM. Also, the IC50 at Itk, at Zap-70, at IGFR-1 and at AKT was over 12.2 µM each time.
For `CN(c1cccc(Cl)c1)c1ncnc(Nc2ccc(S(C)(=O)=O)cc2)n1` [Compound 749], the IC50 on Lck was 1.03 to 6.16 µM; on Kdr it was 6.16 to 8.98 µM; on PDGFRB, 1.03 to 6.16 µM; at c-Met, 1.03 to 6.16 µM; on ErbB2, 1.03 to 6.16 µM; on EGFR it was under 1.03 µM. In addition, the IC50 on Itk, at Zap-70, against IGFR-1 and on AKT was over 11.5 µM each time.
In the case of `CN(c1cccc(Cl)c1)c1ncnc(NC2CCN(Cc3ccccc3)CC2)n1` [Compound 752], the IC50 is over 11 µM at Lck; over 11 µM at Kdr; over 11 µM at PDGFRB; over 11 µM on c-Met; over 11 µM on ErbB2; 0.978 to 5.87 µM on EGFR. In addition, the IC50 on Itk, at Zap-70, on IGFR-1 and at AKT was over 11 µM in each case.
Take `COC(=O)Cc1cccc(Nc2ncnc(-n3c(NCc4ccccc4)nc4ccccc43)n2)c1` [Compound 545]: the IC50 is 0.859 to 5.16 µM at Lck; under 0.859 µM on Kdr; under 0.859 µM at PDGFRB; over 9.67 µM at c-Met; 7.52 to 9.67 µM at ErbB2; 0.859 to 5.16 µM at EGFR. Further, the IC50 on Itk, on Zap-70, on IGFR-1 and on AKT was over 9.67 µM throughout.
On to `COc1cc(Nc2ncnc(Nc3cc(-c4ccc(C(=O)NCCc5ccccc5)cc4)n[nH]3)n2)cc(OC)c1OC` [Compound 1006], for which the IC50 on Lck is 0.706 to 4.24 µM; on Kdr it was over 7.94 µM; at PDGFRB, over 7.94 µM; on c-Met, under 0.706 µM; on ErbB2 it was 4.24 to 6.18 µM; on EGFR, over 7.94 µM. The IC50 at Itk is 4.24 to 6.18 µM; at Zap-70 it was over 7.94 µM; at IGFR-1, under 0.706 µM; at AKT it was over 7.94 µM.
With `Clc1cccc(Nc2ncnc(Nc3cc(-c4ccccc4)n[nH]3)n2)c1` [Compound 1009], the IC50 on Lck is over 12.4 µM; on Kdr, over 12.4 µM; on PDGFRB, 9.62 to 12.4 µM; at c-Met, over 12.4 µM; at ErbB2, over 12.4 µM; at EGFR it was under 1.1 µM. Also, the IC50 at Itk is 1.1 to 6.6 µM; on Zap-70, over 12.4 µM; against IGFR-1, under 1.1 µM; on AKT it was over 12.4 µM.
Take `Brc1cccc(Nc2ncnc(Nc3cccc(Br)c3)n2)c1` [Compound 539]: the IC50 on Lck was 8.31 to 10.7 µM; on Kdr, 0.95 to 5.7 µM; at PDGFRB it was 8.31 to 10.7 µM; on c-Met it was 8.31 to 10.7 µM; at ErbB2 it was 0.95 to 5.7 µM; on EGFR, under 0.95 µM. The IC50 fell in the range of 8.31 to 10.7 µM on Itk, 0.95 to 5.7 µM on Zap-70, 5.7 to 8.31 µM at IGFR-1 and 8.31 to 10.7 µM on AKT.
Consider `COc1cc(Nc2ncnc(N(C)c3cccc(Cl)c3)n2)cc(OC)c1` [Compound 712], for which the IC50 is 1.08 to 6.45 µM on Lck; 1.08 to 6.45 µM at Kdr; 1.08 to 6.45 µM at PDGFRB; 1.08 to 6.45 µM on c-Met; under 1.08 µM at ErbB2; under 1.08 µM at EGFR. In addition, the IC50 at Itk, at Zap-70, against IGFR-1 and on AKT was over 12.1 µM in each case.
Regarding `COc1cc(Nc2ncnc(Nc3ccc4nn(Cc5ccccc5)cc4c3)n2)cc(OC)c1OC` [Compound 555], the IC50 was under 0.827 µM at Lck; 0.827 to 4.96 µM on Kdr; 0.827 to 4.96 µM on PDGFRB; 4.96 to 7.24 µM at c-Met; 0.827 to 4.96 µM at ErbB2; under 0.827 µM on EGFR. The IC50 was 7.24 to 9.31 µM on Itk, 7.24 to 9.31 µM on Zap-70, under 0.827 µM on IGFR-1 and 4.96 to 7.24 µM at AKT.
Take `COCCCNc1ncnc(N2CCCc3cc(C)ccc32)n1` [Compound 762]: the IC50 at Lck was over 14.4 µM; at Kdr it was over 14.4 µM; on PDGFRB, over 14.4 µM; on c-Met, over 14.4 µM; at ErbB2, over 14.4 µM; at EGFR it was 11.2 to 14.4 µM. For the same molecule, the IC50 at Itk, on Zap-70, on IGFR-1 and at AKT was over 14.4 µM throughout.
For `COc1cc(Nc2ncnc(-n3c(NCc4ncc[nH]4)nc4ccccc43)n2)cc(OC)c1OC` [Compound 583], the IC50 is 0.845 to 5.07 µM on Lck; 5.07 to 7.39 µM on Kdr; 0.845 to 5.07 µM at PDGFRB; over 9.5 µM at c-Met; over 9.5 µM on ErbB2; over 9.5 µM at EGFR. For the same molecule, the IC50 is 0.845 to 5.07 µM at Itk, over 9.5 µM at Zap-70, 0.845 to 5.07 µM against IGFR-1 and over 9.5 µM on AKT.
With `CCN(c1ccc(C)cc1)c1ncnc(Nc2cc(OC)c(OC)c(OC)c2)n1` [Compound 538], the IC50 is 1.01 to 6.07 µM on Lck; under 1.01 µM on Kdr; 1.01 to 6.07 µM on PDGFRB; under 1.01 µM on c-Met; 1.01 to 6.07 µM at ErbB2; under 1.01 µM at EGFR. Further, the IC50 on Itk is 8.85 to 11.4 µM; at Zap-70, over 11.4 µM; at IGFR-1, under 1.01 µM; on AKT, over 11.4 µM.
`Fc1ccc(Nc2ncnc(Nc3ccc4cn[nH]c4c3)n2)cc1Cl` [Compound 719]: the IC50 at Lck is over 12.6 µM; on Kdr it was 1.12 to 6.75 µM; on PDGFRB, over 12.6 µM; on c-Met, over 12.6 µM; on ErbB2, 6.75 to 9.84 µM; at EGFR, under 1.12 µM. Besides, the IC50 at Itk, at Zap-70, at IGFR-1 and on AKT was over 12.6 µM throughout.
Regarding `COc1cc(Nc2ncnc(N[C@H]3CCCc4ccccc43)n2)cc(OC)c1OC` [Compound 619], the IC50 is 5.89 to 8.59 µM at Lck; 5.89 to 8.59 µM at Kdr; over 11 µM at PDGFRB; over 11 µM on c-Met; 8.59 to 11 µM at ErbB2; 8.59 to 11 µM on EGFR. Also, the IC50 was over 11 µM at Itk, over 11 µM at Zap-70, over 11 µM against IGFR-1 and 8.59 to 11 µM on AKT.
